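In this assay, cells in 96-well plates receive the compound at five concentrations for 48 hours. Endpoints are linearly interpolated between the surrounding concentrations. The concentration for full growth arrest is given as TGI.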
Columns and labels:
Experiment in all cases: NCI anticancer screen, dose series, 48 h
SNB-75 CNS = system: SNB-75 CNS
EKVX NSCLC = system: EKVX NSCLC
COLO 205 colon = system: COLO 205 colon
OVCAR-5 ovarian = system: OVCAR-5 ovarian
SNB-19 CNS = system: SNB-19 CNS
HCC-2998 colon = system: HCC-2998 colon
K-562 leukemia = system: K-562 leukemia
HOP-62 NSCLC = system: HOP-62 NSCLC
OVCAR-8 ovarian = system: OVCAR-8 ovarian
SR leukemia = system: SR leukemia

SMILES | TGI (SNB-75 CNS) | TGI (EKVX NSCLC) | TGI (COLO 205 colon) | TGI (OVCAR-5 ovarian) | TGI (SNB-19 CNS) | TGI (HCC-2998 colon) | TGI (K-562 leukemia) | TGI (HOP-62 NSCLC) | TGI (OVCAR-8 ovarian) | TGI (SR leukemia)
O=C1NC(N/N=C/C(O)C(O)C(O)C(O)CO)=N/C1=C\c1cccs1 (stereo not given) | > 100 µM | > 100 µM | > 100 µM | > 100 µM | > 100 µM | > 100 µM | > 100 µM | > 100 µM | > 100 µM | 
CCOC(=O)/C=C/[C@H](O[Si](c1ccccc1)(c1ccccc1)c1ccccc1)C(C)(C)C | > 31.6 µM | > 31.6 µM | > 31.6 µM |  | > 31.6 µM | > 31.6 µM | > 31.6 µM | > 31.6 µM | > 31.6 µM | 
C=C1CC(CNc2cc(Cl)nc(N)n2)C1 | > 100 µM | > 100 µM | > 100 µM | > 100 µM | > 100 µM | > 100 µM | > 100 µM | > 100 µM | > 100 µM | > 100 µM
O=C(/C=C/c1ccc(Cl)c(Cl)c1)CCN1CCN(CCC(=O)/C=C/c2ccc(Cl)c(Cl)c2)CC1 | > 100 µM | > 100 µM | 70.8 µM | 39.9 µM |  | 28.9 µM | > 100 µM | 60.6 µM | > 100 µM | > 100 µM
COc1ccccc1/C=C1/Sc2scc(CC(=O)Nc3ccccc3)[n+]2C1=O | > 100 µM | > 100 µM | 65.4 µM | > 100 µM | > 100 µM | > 100 µM |  | > 100 µM | > 100 µM | 
CC1(C)OC[C@@]2([C@@H]3CC[C@@H](C3)C2(C)C)N1O | > 100 µM | > 100 µM | > 100 µM | > 100 µM | > 100 µM |  | > 100 µM | > 100 µM | > 100 µM | 
CO/N=C1/C(n2[nH]c(=O)n(-c3ccccc3)c2=O)C2C=CC1n1c(=O)n(-c3ccccc3)c(=O)n12 (stereo not given) | > 100 µM | > 100 µM | > 100 µM | > 100 µM | > 100 µM | > 100 µM | > 100 µM |  | > 100 µM | > 100 µM
Cc1cc2nc3c(C(O)CO)nn(-c4ccccc4)c3nc2cc1C (stereo not given) | 51.9 µM | 63.4 µM |  | 44.9 µM | 56.1 µM |  | 59.3 µM | 44 µM | 76.8 µM | 33.4 µM
COc1cccc2c1C(=O)c1ccc3cc(CO)cc(O)c3c1C2=O | 9.4 µM | 4.89 µM | 3.32 µM | 3.92 µM | 5.85 µM |  | 3.74 µM | 6.33 µM | 2.22 µM | 1.31 µM
CCOC(=O)c1ccc(Nc2nc3ccc(C(F)(F)F)cc3nc2-c2ccccc2)cc1 | > 100 µM | > 100 µM |  | > 100 µM | > 100 µM | > 100 µM | > 100 µM | > 100 µM | > 100 µM | > 100 µM
c1ccc2c(Cc3c[nH]c4ccccc34)c[nH]c2c1 | 36.8 µM | 32.5 µM | 27.8 µM | 29.4 µM | 44.4 µM |  | > 100 µM | 33.8 µM | 42.8 µM | 34.2 µM
CCOP(=O)(OCC)C(Cc1ccccc1)N=C(c1ccccc1)c1ccccc1 (stereo not given) | 24.2 µM | 34.3 µM | 28.7 µM | 28.1 µM | 32.3 µM |  | 41.9 µM | 35.2 µM | 33.8 µM | > 100 µM
CCOC(=O)c1c(NC(=O)c2ccccc2)sc2c1CCC2 | > 100 µM | > 100 µM | > 100 µM | > 100 µM | > 100 µM |  | > 100 µM | > 100 µM | > 100 µM | > 100 µM
COc1cc(/C=C2\CCc3cc(OC)c(OC)cc3C2=O)cc(OC)c1 | > 100 µM | > 100 µM | > 52.1 µM | 99.3 µM | > 100 µM | 15 µM | > 61 µM | > 87.1 µM | > 52 µM | 
CC1(C)N=C(N)N=C(N)N1c1ccc(CCCCc2ccc(Cl)cc2Cl)cc1 |  | 45.1 µM | 4.88 µM | 20.9 µM | 11 µM | 17.4 µM | > 100 µM | 10.6 µM | 16.1 µM | 60.4 µM
Cc1[nH]n(-c2nc(O)c(C)c(=O)[nH]2)c(=O)c1CCO | > 100 µM | > 100 µM | > 100 µM | > 100 µM | > 100 µM |  | > 100 µM |  | > 100 µM | 
CCO[C@H]1C[C@@H](c2ccccc2)[C@]2(C)C[C@H](C(=O)OC)ON2O1 |  | > 100 µM | > 100 µM | > 100 µM | > 100 µM |  | > 100 µM | > 100 µM | > 100 µM | 
OCCCN(CCc1ccc(Cl)c(Cl)c1)CCN1CCCC1 | > 100 µM | > 100 µM |  | > 100 µM | > 100 µM | 32.9 µM | 46.2 µM | > 100 µM | > 100 µM | > 100 µM
COC(=O)[C@H]1ON2O[C@@H](O[C@H]3CCCC[C@@H]3C(C)(C)c3ccccc3)C[C@@H]3CC[C@H]1[C@@]32C | > 100 µM | > 100 µM | > 100 µM | > 100 µM |  | > 100 µM | > 100 µM | > 100 µM | > 100 µM | > 100 µM
CCOC(=O)NC(N(C)C(C(C)C)P(=O)(OCC)OCC)(C(F)(F)F)C(F)(F)F (stereo not given) | > 100 µM | > 100 µM | > 100 µM | > 100 µM | > 100 µM |  | > 100 µM | > 100 µM | > 100 µM | > 100 µM
Cn1c2ccccc2n2c3ccccc3c(=S)c(C#N)c12 | > 100 µM | > 100 µM |  | > 100 µM | > 100 µM | > 100 µM | > 100 µM | > 100 µM | > 100 µM | > 100 µM
N#Cc1nc(Cc2ccccc2)oc1N |  | > 100 µM | > 100 µM | > 100 µM | > 100 µM |  | > 100 µM | > 100 µM |  | > 100 µM
COc1ccc(NC(C)=O)c(C(=O)CCNC(C)=O)c1 | > 100 µM | > 100 µM | > 100 µM | > 100 µM | > 100 µM |  |  |  | > 100 µM | > 100 µM
CC1(C)OC2CN(C(=O)OCc3ccccc3)C(CO)C2O1 (stereo not given) | > 100 µM | > 100 µM | > 100 µM | > 100 µM | > 100 µM | > 100 µM | > 100 µM | > 100 µM | > 100 µM | 
